Read-outs that look alike come from different tables or passages of the source. Marks after values point to notes of the source that are not given here. *1 amine or outer side, *2 acyl side, *3 side chain or, on linkers, in order; H or OH if unused. Where a SMILES comes first, the peptide text is derived from it. Bridges are numbered along the chain shown (N, C = ends). Roman numbers before positions name the chains, in order. [ ]: non-standard residue; d: D form. Actinocin(9to1) = Cc1c2oc3c(C)ccc(C(=O)[*:1])c3nc-2c(C(=O)[*:2])c(N)c1=O; NMeV = CN[C@H](C(=O)O)C(C)C; Sar = CNCC(=O)O
Legend:
[1] = test system: Tobacco mosaic virus (TMV), strain U1; assay: Influence of actinomycin D on GXM-induced resistance to TMV; assay type: in vivo, Nicotiana tabacum, variety Immune 580; conditions: FIG. 14
Protocol: Abscissa: variants of the experiment: 1—GXM; 2—mixture of GXM and AMD (10 μg/mL); 3—AMD (10 μg/mL) introduced 2 days after GXM; 4—AMD (20 μg/mL) introduced 2 days after GXM; 5—AMD (10 μg/mL). Ordinate: the ratio (%) of the quantity of local lesions in the experiment (dark solid bars) and in control (textured light bars).
When studying the GXM-induced mechanism of plant resistance, we used actinomycin D (AMD) inhibiting the DNA-dependent synthesis of mRNA by blocking RNA-polymerases. Solutions of AMD at the concentrations of 10 and 20 μg/mL and rhamnolipide (RL)−1 mg/mL, which were subepidermally introduced simultaneously or via definite periods of time after the GXM.

[2] = test system: Coprinus comatus lectin; assay: Sugar-binding specificity: inhibition of lectin-induced hemagglutination by carbohydrates; assay type: biochemical; conditions: for Inhibition of lectin hemagglutinating activity by sugar: Coprinus comatus biomass lectin
Protocol: Sugar-binding specificity of lectins. The investigation of inhibition of lectin-induced hemagglutination by various carbohydrates was performed in a manner analogous to the hemagglutination test. Sugar samples (0.3 M) were prepared in phosphate buffered saline. All of the dilutions were mixed with an equal volume (25 μL) of a solution of the lectin. The mixture was allowed to stand for 30 min at room temperature and then mixed with 50 μL of 2% rabbit erythrocyte suspension. Sugar-binding specificity was expressed as the minimum concentration of each sugar required for inhibition of hemagglutination of titer 4 of the lectin. N-Acetyl-D-galactosamine (GalNAc); N-Acetyl-D-glucosamine (GlcNAc), D(+)Galactose (Gal); D(+)Glucose, D(+)Lactose (Lac); D(+)Mannose, xylose, cellobiose, and dulcitol were tested for detection of sugar-binding specificity of lectins.

[3] = test system: IκBα phosphorylation; assay: pIκBα level in H2O2-stimulated MCF7 cells, Western immunoblot; assay type: cell-based
Protocol: Cell Lysis, Preparation of Total Cell Lysates. In order to measure the intracellular levels of certain proteins as a response to the crude fungal extracttreatments, each time after cells were collected, a total cell lysis was performed. The exact procedure of the total cell lysis is described below.
Cells were collected and washed 3 times with cold phosphate buffered saline (PBS) through centrifugation for 5 min, at 3,000 rpm, and 4° C. The final cell amounts were collected in Eppendorf tubes and the left over PBS from the last washing was discarded so that only the cell pellet was left in each tube. For cell lysis, each time a freshly prepared lysis buffer was used with the following content: 500-1000 μL, depending on the number of samples, of cell lysis reagent, protease inhibitor cocktail, and both phosphatase inhibitor cocktails 1 and 2 at the final concentration of 1%, and 0.3 M of phenylmethylsulfonyl fluoride (PMSF). […]
As a control, no H2O2 treatment was used, according to which the kinetics of pIκBα were determined. […]
Densitometric Analysis. Densitometric quantitative analyses of the protein bands, detected by Western blot, have been carried out using the TotalLab software and are presented as folds of the volumes of protein bands. […]

[4] = test system: interferon (IFN); assay: IFN level in blood plasma of mice after per os biomass; assay type: in vivo; conditions: dose 50 mg/animal
[5] = test system: Tobacco mosaic virus (TMV), strain U1; assay type: in vivo; conditions: Datura stramonium
Source text: (§1) Virus: Tobacco mosaic virus (TMV), strain U1;
(§2) Plants: Tobacco (Nicotiana tabacum L.) variety Immune 580 and Datura stramonium L., cultivated in a hothouse under conditions of natural lighting, humidity, and temperature. Plants at a stage of 4-6 leaves were used in the experiment.
Polysaccharides, extracted from culture liquid of Tremella mesenterica were employed in this study using the method of Kovalenko with some modifications. To isolate acid glucuronoxylomannan (GXM) from neutral polysaccharides, we applied its sedimentation from a water solution with acetone (1:1) in the presence of 0.05 M CaCl2. Gas chromatography was carried out on Sephadex G-50 (2.5×80 cm) in pyridinium-acetate buffer, pH 4.5 (4 mL pyridine and 10 mL AcOH in 1 L water) and the eluate was monitored by refractive index detector.
In in vitro experiments the water solutions of the total preparation, neutral polysaccharide preparations, and pure GXM at concentrations of 10, 100, 500, and 1000 μg/mL were added to a suspension of TMV (10 μg/mL). After incubation over the 30 min the left halves of datura's leaves were inoculated with this mixture. The right halves of leaves were inoculated with TMV at the same concentration without polysaccharides. The degree of inhibition of viral infection, or VIR, was counted (in percentage) according to the number of local lesions on the experimental and control halves of the leaves by the following formula: I=((K−D)/K) 100%, where I—is a degree of virus inhibition or level of AVR, %; K—is the number (size) of local lesions in the control; D—is the number (size) of local lesions in the experiment.

[6] = test system: Tobacco mosaic virus (TMV), strain U1; assay: Induction of resistance against TMV infection in Datura; assay type: in vivo; conditions: Datura stramonium
Protocol: as §1, §2
(§3) Investigations of induced properties of GXM were carried out on the tobacco and datura plants. […] The two halves of leaves were inoculated by TMV (1-5 μg/mL). The degree of AVR was taken into account by the formula mentioned above.

[7] = test system: Tobacco mosaic virus (TMV), strain U1; assay: Induction of resistance against TMV infection in tobacco; assay type: in vivo, Nicotiana tabacum, variety Immune 580; conditions: for Level of induced resistance, % / Number of local lesions per leaf, Experiment: Nicotiana tabacum Immune 580; for Level of resistance: GXM 1000 μg/mL, FIG. 11
Source text: Abscissa: interval between introduction of GXM and inoculation of TMV (days). Ordinate: the ratio (%) of the number of local lesions in the experiment (dark solid bars) and in control (textured light bars).
Abscissa: interval between introduction of GXM and inoculation of TMV (days). Ordinate: size of local lesions (mm) in the experiment (dark solid bars) and in control (textured light bars).
as §1, §2, §3

Cc1c2oc3c(C)ccc(C(=O)N[C@@H]4C(=O)N[C@H](C(C)C)C(=O)N5CCC[C@H]5C(=O)N(C)CC(=O)N(C)[C@@H](C(C)C)C(=O)O[C@@H]4C)c3nc-2c(C(=O)N[C@@H]2C(=O)N[C@H](C(C)C)C(=O)N3CCC[C@H]3C(=O)N(C)CC(=O)N(C)[C@@H](C(C)C)C(=O)O[C@@H]2C)c(N)c1=O [AMD, actinomycin D] (I: T[dV]P[Sar][NMeV] / II: T[dV]P[Sar][NMeV]; ester I:1-I:C, II:1-II:C; linker I:N-II:N via Actinocin(9to1))
Inhibition of development of GXM-induced AVR ([1]; AMD 10 μg/mL): completely
Inhibition of development of GXM-induced AVR ([1]; AMD 20 μg/mL): partly

OC[C@H]1O[C@@H](O[C@H]2[C@H](O)[C@@H](O)C(O)O[C@@H]2CO)[C@H](O)[C@@H](O)[C@H]1O (stereo partly drawn) [Lactose, D(+)Lactose]
MIC of saccharides ([2]; lactose, minimal concentration inhibiting hemagglutination): 780 µM

O=C[C@H](O)[C@@H](O)[C@H](O[C@@H]1O[C@H](CO)[C@@H](O)[C@H](O)[C@H]1O)[C@H](O)CO [cellobiose]
Inhibition of lectin hemagglutinating activity by sugar [2]: did not inhibit

COc1cc(/C=C/C(=O)CC(=O)/C=C/c2ccc(O)c(OC)c2)ccc1O [curcumin]
pIκBα level ([3]; 10 μM, 100 μM H2O2, preliminary data): significantly inhibited
Effect on IκBα phosphorylation ([3]; MCF7, 10 min 100 μM H2O2, FIG. 2): high phospho-IkBα inhibitory effect

OC[C@@H](O)[C@H](O)[C@H](O)[C@@H](O)CO [dulcitol]
Inhibition of lectin hemagglutinating activity by sugar [2]: did not inhibit

O=C[C@H](O)[C@@H](O)[C@H](O)CO [xylose]
Inhibition of lectin hemagglutinating activity by sugar [2]: did not inhibit

Poly I:C
IFN titre ([4]; 6 hours): 320 units/ml
IFN titre ([4]; 24 hours): 40 units/ml
IFN titre ([4]; 48 hours): <20 units/ml

glucuronoxylomannan [GXM]
Number of local lesions per leaf, Experiment ([5]; 10 μg/mL): 26.5
Inhibition, % ([5]; 100 μg/mL): 16* %
Number of local lesions per leaf, Experiment ([5]; 100 μg/mL): 4.5
Number of local lesions per leaf, Experiment ([5]; 1000 μg/mL): 1.3
Level of induced resistance, % ([6]; 100 μg/mL): 110%
Number of local lesions per leaf, Experiment ([6]; 100 μg/mL): 71.2
Level of induced resistance, % ([6]; 500 μg/mL): 90%
Number of local lesions per leaf, Experiment ([6]; 500 μg/mL): 90.0
Level of induced resistance, % ([6]; 1000 μg/mL): 14* %
Number of local lesions per leaf, Experiment ([6]; 1000 μg/mL): 119.9
Level of induced resistance, % ([6]; 2000 μg/mL): 33** %
Number of local lesions per leaf, Experiment ([6]; 2000 μg/mL): 119.6
Level of induced resistance, % ([7]; 100 μg/mL): 20%
Number of local lesions per leaf, Experiment ([7]; 100 μg/mL): 98.1
Level of induced resistance, % ([7]; 500 μg/mL): 20%
Number of local lesions per leaf, Experiment ([7]; 500 μg/mL): 102.7
Level of induced resistance, % ([7]; 1000 μg/mL): 17* %
Number of local lesions per leaf, Experiment ([7]; 1000 μg/mL): 128.5
Size of local lesions, experiment vs control ([7]; 1000 μg/mL, tobacco): reliable differences were not observed
Level of induced resistance, % ([7]; 2000 μg/mL): 52** %
Number of local lesions per leaf, Experiment ([7]; 2000 μg/mL): 63.4
Growth (size) of TMV local lesions ([7]; 2500 μg/mL, tobacco, FIG. 13): intensifies the growth of viral lesions
Development of AVR relative to TMV ([7]; 1000 and 2500 μg/mL, first day after the inducer, tobacco): induces the development of AVR
Level of resistance ([7]; 5th day after the inducer, tobacco): 30%
Level of resistance ([7]; 7th day after the inducer, tobacco): 20%
